Experiments:
Format in all cases: in vivo
Tenebrio molitor pupae = experiment: topical application to Tenebrio molitor pupae, maturation inhibition; settings: rating scale 0-4
Source text: (§1) The compounds were applied in acetone solution at concentrations of 10 percent, 1 percent and 0.5 percent. One microliter of the acetone solution was applied to each test specimen. Ten test specimens were employed for each insect at each concentration and compared to ten acetone controls and ten zero controls. Approximately eight to ten days were required before results could be ascertained.
(§2) The insect species used in the test were Tenebrio molitor pupae; milkweed bug, fourth nymphal stage; wax moth, fifth larval stage; and Mexican bean beetle, fourth larval stage. At the completion of the test, each specimen was examined for the degree of juvenile and adult characteristics. The milkweed bug, wax moth, and Mexican bean beetle were assigned a numerical rating of 0 to 3 with 0 indicating no effect and 3 indicating the maximum effect or least adult development. Because of differences in morphology the Tenebrio rating scale was 0 to 4. In all cases a rating of 2 or higher means that the insect is incapable of reproduction. The number of specimens in each rating classification are given. In any test were the total of specimens reported is less than 10, those unreported died in some metamorphic stage. Such deaths indicate control, since the dead insects are not capable of reproducing.

Mexican bean beetle = experiment: topical application to Mexican bean beetle, fourth larval stage, maturation inhibition; settings: rating scale 0-3
Source text: as §1, §2

milkweed bug = experiment: topical application to milkweed bug, fourth nymphal stage, maturation inhibition; settings: rating scale 0-3
Source text: as §1, §2

wax moth = experiment: topical application to wax moth, fifth larval stage, maturation inhibition
Source text: as §1, §2

[1] = 10% in acetone, 1 microliter topical, rating scale 0 (no effect) to 3 (maximum)

CC(C)=CCC/C(C)=C/CCc1ccc(N(C)C)cc1 [trans-4-(4,8-DIMETHYL-3,7-NONADIENYL)-N,N-DIMETYLANILINE]
number of specimens in rating 0 (Tenebrio molitor pupae; 0.5%): 10 specimens
number of specimens in rating 0 (Tenebrio molitor pupae; 1%): 2 specimens
number of specimens in rating 1 (Tenebrio molitor pupae; 1%): 2 specimens
number of specimens in rating 2 (Tenebrio molitor pupae; 1%): 1 specimens
number of specimens in rating 3 (Tenebrio molitor pupae; 1%): 4 specimens
number of specimens in rating 4 (Tenebrio molitor pupae; 10%): 10 specimens
number of specimens in rating 0 (Mexican bean beetle; 0.5%): 10 specimens
number of specimens in rating 0 (Mexican bean beetle; 1%): 9 specimens
number of specimens in rating 3 (Mexican bean beetle; 1%): 1 specimens
number of specimens in rating 3 (Mexican bean beetle; 10%): 10 specimens
number of specimens in rating 0 (milkweed bug; 0.5%): 10 specimens
number of specimens in rating 0 (milkweed bug; 1%): 5 specimens
number of specimens in rating 1 (milkweed bug; 1%): 1 specimens
number of specimens in rating 2 (milkweed bug; 1%): 1 specimens
number of specimens in rating 3 (milkweed bug; 1%): 2 specimens
number of specimens in rating 3 (milkweed bug; 10%): 10 specimens
number of specimens in rating 0 (wax moth; 0.5%, rating scale 0-3): 10 specimens
number of specimens in rating 0 (wax moth; 1%, rating scale 0-3): 10 specimens
number of specimens in rating 0 (wax moth; [1]): 10 specimens

CC(C)=CCC/C(C)=C/CCc1cccc(C)c1 [trans-2,6-dimethyl-9-(3-tolyl)-2,6-nonadiene]
number of specimens in rating 0 (Tenebrio molitor pupae; 0.5%): 10 specimens
number of specimens in rating 0 (Tenebrio molitor pupae; 1%): 9 specimens
number of specimens in rating 2 (Tenebrio molitor pupae; 1%): 1 specimens
number of specimens in rating 4 (Tenebrio molitor pupae; 10%): 10 specimens
number of specimens in rating 0 (Mexican bean beetle; 0.5%): 9 specimens
number of specimens in rating 2 (Mexican bean beetle; 0.5%): 1 specimens
number of specimens in rating 0 (Mexican bean beetle; 1%): 1 specimens
number of specimens in rating 1 (Mexican bean beetle; 1%): 1 specimens
number of specimens in rating 2 (Mexican bean beetle; 1%): 1 specimens
number of specimens in rating 3 (Mexican bean beetle; 1%): 7 specimens
number of specimens in rating 3 (Mexican bean beetle; 10%): 10 specimens
number of specimens in rating 0 (milkweed bug; 0.5%): 10 specimens
number of specimens in rating 0 (milkweed bug; 1%): 5 specimens
number of specimens in rating 2 (milkweed bug; 1%): 2 specimens
number of specimens in rating 3 (milkweed bug; 1%): 1 specimens
number of specimens in rating 3 (milkweed bug; 10%): 10 specimens
number of specimens in rating 0 (wax moth; 0.5%, rating scale 0-3): 10 specimens
number of specimens in rating 0 (wax moth; 1%, rating scale 0-3): 10 specimens
number of specimens in rating 0 (wax moth; [1]): 10 specimens

CCC(C)=CCCC(=CCCc1ccc2c(c1)OCO2)CC [3-METHYL-7-ETHYL-10-(3,4-METHYLENEDIOXYPHENYL)-3,7-DECADIENE]
number of specimens in rating 3 (Tenebrio molitor pupae; 0.5%): 2 specimens
number of specimens in rating 4 (Tenebrio molitor pupae; 0.5%): 8 specimens
number of specimens in rating 3 (Tenebrio molitor pupae; 1%): 1 specimens
number of specimens in rating 4 (Tenebrio molitor pupae; 1%): 9 specimens
number of specimens in rating 4 (Tenebrio molitor pupae; 10%): 10 specimens
number of specimens in rating 2 (Mexican bean beetle; 0.5%): 1 specimens
number of specimens in rating 3 (Mexican bean beetle; 0.5%): 9 specimens
number of specimens in rating 3 (Mexican bean beetle; 1%): 10 specimens
number of specimens in rating 3 (Mexican bean beetle; 10%): 10 specimens
number of specimens in rating 0 (milkweed bug; 0.5%): 9 specimens
number of specimens in rating 1 (milkweed bug; 0.5%): 1 specimens
number of specimens in rating 0 (milkweed bug; 1%): 7 specimens
number of specimens in rating 2 (milkweed bug; 1%): 2 specimens
number of specimens in rating 3 (milkweed bug; 1%): 1 specimens
number of specimens in rating 3 (milkweed bug; 10%): 10 specimens
number of specimens in rating 0 (wax moth; 0.5%, rating scale 0-3): 9 specimens
number of specimens in rating 0 (wax moth; 1%, rating scale 0-3): 10 specimens
number of specimens in rating 0 (wax moth; [1]): 10 specimens
